Results taken from US8178538B2, “Pyridazinones” (Hoffmann-La Roche Inc., priority 2008, dated 2012).

Target: T1, PDE10A2 (Homo sapiens, UniProt Q9Y233)
T1 construct: residues serine 449 to aspartate 789; His6 (H6) with thrombin cleavage site (N, cleaved yes); made in house; host or cells: E. coli BL21(DE3) pLysS
Test: PDE10A2 inhibition, Scintillation Proximity Assay (SPA)
Format: biochemical
Settings: catalytic domain of human PDE10A2 (S449-D789), 0.25 nM enzyme, 50 nM cGMP + 50 nM [3H]-cGMP, 30 minutes at room temperature
Protocol: The following tests were carried out in order to determine the activity of the compounds of the present invention. PDE10 activity of the compounds of the present invention is determined using a Scintillation Proximity Assay (SPA)-based method similar to the one previously described (Fawcett, L. et al., Proc Natl Acad Sci USA (2000) 97(7):3702-3707).
PDE10A1 and PDE10A2 are two splice variants of PDE10A. There are these 2 splice variants known, which differ in the N-terminal part of the protein. The catalytic domains of PDE10A1 and PDE10A2 are identical. The assay for PDE10A2 described below is therefore also representative for PDE10A1 and also for PDE10A in general.
The PDE10A2 assay was performed in a two step procedure in 96-well micro titer plates. The reaction mixture of 80 μl contained 20 mM HEPES/10 mM MgCl2/[…] (pH 7.5), 50 nM cGMP (Sigma) and 50 nM [^3H]-cGMP (GE Healthcare), 0.25 nM PDE10A2 with or without a specific test compound. A range of concentrations of the potential inhibitor was used to generate data for calculating the concentration of inhibitor resulting in 50% of the effect (e.g. IC50, the concentration of the competitor inhibiting PDE10A2 activity 50%). Non-specific activity was tested without the enzyme. The reaction was initiated by addition of the substrate solution (cGMP and [^3H]-cGMP) and allowed to progress for 30 minutes at room temperature. The reaction was terminated by transferring 50 μl of the reaction mixture into an OptiPlate (Perkin Elmer) containing 25 μl of YSi-SPA scintillation beads (GE Healthcare) in 18 mM zinc sulphate solution (stop reagent). After 1 h under shaking, the plate was centrifuged one minute at 1000 rpm to allow beads to settle. Afterwards, radioactive counts were measured on a Perkin Elmer TopCount Scintillation plate reader.
The catalytic domain of human PDE10A2, residues serine 449 to aspartate 789, was amplified by PCR using cDNA (Origene) and the oligonucleotides 5′-GGGGACAAGTTT […]-3′ (SEQ ID NO. 1) (with AttB1 recombination site in bold and thrombin protease cleavage site in italics) and 5′-[…] GCTG-3′ (SEQ ID NO. 2) (with AttB2 recombination site in bold) which conferred Gateway recombination sites. The PCR product was used in a BP recombination reaction with pDONR221 to generate pENTR Thm-PDE10A2(S449-D789) which was DNA sequence verified and then used in an LR recombination reaction with a Gateway modified version of pET11a. The resulting expression vector, placT7.2H6-(gw1)-Thm-PDE10A2(S449-D789) was DNA sequence confirmed and transformed into E. coli strain BL21(DE3) pLysS and recombinant protein was produced in TB medium at 20° C. by induction to a final IPTG concentration of 0.5 mM at an optical density of 1.0 at 600 nm for 20 hours. About 30% of the protein was in the soluble fraction of the cell homogenate. The protein was purified using sequential chromatography on Ni-NTA and HiTrapQ/HiTrapS. After thrombin digest at room temperature a HiTrapChelating/HiTrap Benzamindin chromatography removed impurities, uncleaved protein and thrombin. Final purification of PDE10A2(S449-D789) was performed on a Superdex 75 size exclusion chromatography equilibrated with 25 mM HEPES pH 8.4, 0.15 M NaCl. The yield of pure protein was 2 mg/liter of culture volume is relatively low. The purity of the protein was >95%, monomeric and monodisperse as shown by SDS-PAGE, HPLC and analytical ultracentrifugation.

T1 sequence (Q9Y233 715-1055): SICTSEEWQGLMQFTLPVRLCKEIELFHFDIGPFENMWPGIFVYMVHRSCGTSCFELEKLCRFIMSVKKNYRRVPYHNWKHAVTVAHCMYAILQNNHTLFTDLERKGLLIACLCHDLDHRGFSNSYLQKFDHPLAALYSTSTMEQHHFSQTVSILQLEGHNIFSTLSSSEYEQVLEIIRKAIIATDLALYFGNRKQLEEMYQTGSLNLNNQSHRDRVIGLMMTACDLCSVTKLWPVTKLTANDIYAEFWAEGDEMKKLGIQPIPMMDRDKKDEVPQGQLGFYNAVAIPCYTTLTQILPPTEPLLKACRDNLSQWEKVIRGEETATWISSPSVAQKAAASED

IC50 | SMILES
0.143 µM | O=c1ccn(-c2ccc(OC(F)(F)F)cc2)nc1-c1ccnn1-c1ccncc1 [Example 35, 3-(2-Pyridin-4-2H-pyrazol-3-yl)-1-(4-trifluoromethoxy-phenyl)-1H-pyridazin-4-one]
0.045 µM | CS(=O)(=O)c1cccc(-n2ccc(=O)c(-c3ccnn3-c3ccccc3)n2)c1 [Example 30, 1-(3-Methanesulfonyl-phenyl)-3-(2-phenyl-2H-pyrazol-3-yl)-1H-pyridazin-4-one]
0.071 µM | Cc1cc(-n2nccc2-c2nn(-c3cccc(S(=O)(=O)N(C)C)c3)ccc2=O)ccn1 [Example 133, N,N-Dimethyl-3-{3-[2-(2-methyl-pyridin-4-yl)-2H-pyrazol-3-yl]-4-oxo-4H-pyridazin-1-yl}-benzenesulfonamide]
0.017 µM | O=c1ccn(-c2cccc(S(=O)(=O)C(F)(F)F)c2)nc1-c1ccnn1-c1ccccc1 [Example 281, 3-(2-Phenyl-2H-pyrazol-3-yl)-1-(3-trifluoromethanesulfonyl-phenyl)-1H-pyridazin-4-one]
0.057 µM | Cc1cc(-n2nccc2-c2nn(-c3cccc(OC(F)(F)F)c3)ccc2=O)ccn1 [Example 124, 3-[2-(2-Methyl-pyridin-4-yl)-2H-pyrazol-3-yl]-1-(3-trifluoromethoxy-phenyl)-1H-pyridazin-4-one]
0.015 µM | N#Cc1cccc(-n2ccc(=O)c(-c3ccnn3-c3cccc(Cl)c3)n2)c1 [Example 287, 3-{3-[2-(3-Chloro-phenyl)-2H-pyrazol-3-yl]-4-oxo-4H-pyridazin-1-yl}-benzonitrile]
0.067 µM | O=c1ccn(-c2cccc(OC(F)(F)F)c2)nc1-c1ccnn1-c1nccc2c1CCCC2 [Example 58, 3-[2-(5,6,7,8-Tetrahydro-isoquinolin-1-yl)-2H-pyrazol-3-yl]-1-(3-trifluoromethoxy-phenyl)-1H-pyridazin-4-one]
0.002 µM | O=c1ccn(-c2ccc(OC(F)(F)F)cc2)nc1-c1ccnn1-c1ccnc2ccccc12 [Example 186, 3-(2-Quinolin-4-yl-2H-pyrazol-3-yl)-1-(4-trifluoromethoxy-phenyl)-1H-pyridazin-4-one]
0.025 µM | CCc1cccc(-n2ccc(=O)c(-c3ccnn3-c3ccccc3)n2)c1 [Example 17, 1-(3-Ethyl-phenyl)-3-(2-phenyl-2H-pyrazol-3-yl)-1H-pyridazin-4-one]
0.105 µM | O=c1ccn(-c2ccc(OC(F)F)cc2)nc1-c1ccnn1-c1cccc(F)c1 [Example 100, 1-(4-Difluoromethoxy-phenyl)-3-[2-(3-fluoro-phenyl)-2H-pyrazol-3-yl]-1H-pyridazin-4-one]
0.04 µM | CS(=O)(=O)c1cccc(-n2ccc(=O)c(-c3ccnn3-c3cccc4c3OCO4)n2)c1 [Example 106, 3-(2-Benzo[1,3]dioxol-4-yl-2H-pyrazol-3-yl)-1-(3-methanesulfonyl-phenyl)-1H-pyridazin-4-one]
1.2 µM | COc1ccc(-c2csc(-n3nccc3-c3nn(-c4cccc(S(C)(=O)=O)c4)ccc3=O)n2)c(F)c1 [Example 95, 3-{2-[4-(2-Fluoro-4-methoxy-phenyl)-thiazol-2-yl]-2H-pyrazol-3-yl}-1-(3-methanesulfonyl-phenyl)-1H-pyridazin-4-one]
0.006 µM | CC(=O)N(C)c1cccc(-n2ccc(=O)c(-c3ccnn3-c3ccccc3F)n2)c1 [Example 294, N-(3-{3-[2-(2-Fluoro-phenyl)-2H-pyrazol-3-yl]-4-oxo-4H-pyridazin-1-yl}-phenyl)-N-methyl-acetamide]
0.021 µM | CC(=O)Nc1cccc(-n2ccc(=O)c(-c3ccnn3-c3ccccc3F)n2)c1 [Example 292, N-(3-{3-[2-(2-Fluoro-phenyl)-2H-pyrazol-3-yl]-4-oxo-4H-pyridazin-1-yl}-phenyl)-acetamide]
0.003 µM | O=c1ccn(-c2ccc(OCC(F)(F)F)cc2)nc1-c1ccnn1-c1cccc(Cl)c1 [Example 257, 3-[2-(3-Chloro-phenyl)-2H-pyrazol-3-yl]-1-[4-(2,2,2-trifluoro-ethoxy)-phenyl]-1H-pyridazin-4-one]
